Where two headings read alike, the source gives them in different places.
Key:
[1] = test system: HIV-1 wild-type strain; experiment: General antiviral assay, cell-based virus replication in MT4-LTR-EGFP cells, wild-type strain
Method in brief: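 HIV LTR-driven EGFP reporter MT4 cells (150,000 cells/ml) infected at MOI 0.0025 with or without inhibitor at various concentrations. Read-out either GFP fluorescence on day 3 post-infection or resazurin cell viability on day 4.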

[2] = test system: HIV-1 Strain A (M046I, I084V); experiment: microbe, parasite or virus in culture; format: cell-based; settings: clinical isolate Strain A; read-out: A EC50
Method in brief: (§1)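 MT4 cells stably carrying an HIV LTR-driven EGFP reporter (150,000 cells/ml) were infected at MOI 0.0025 with or without inhibitor dilutions. Replication was read either as GFP fluorescence on day 3 post-infection or as cell viability by resazurin on day 4.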

[3] = test system: HIV-1 Strain B (M046I, I050V); experiment: microbe, parasite or virus in culture; format: cell-based; settings: clinical isolate Strain B; read-out: B EC50
Method in brief: as §1

[4] = test system: HIV-1 Strain C (G048G/V, V082A); experiment: microbe, parasite or virus in culture; format: cell-based; settings: clinical isolate Strain C; read-out: C EC50
Method in brief: as §1

[5] = test system: mock-infected MT4 cells; experiment: General toxicity assay on mock-infected MT4 cells with CMV-EGFP reporter (CC50); format: cell-based
[6] = test system: HIV-1 IIIB; experiment: 50% HS-Rezazurin: antiviral assay in the presence of 50% human serum, MT-4 cells, resazurin cell viability; format: cell-based
Method in brief: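 MT-4 cells infected with HIV-1 IIIB (MOI 0.001 to 0.01 CCID50/cell) for 1 h, washed, then plated onto serial compound dilutions in 50% human serum (10% FCS alternative). After 4 days, EC50 derived from resazurin cell viability.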

[7] = wild-type strain IIIB, MT4-LTR-EGFP cells
[8] = mock-infected MT4 cells with CMV-EGFP reporter, read-out: TOX-MT4CMV (CC50)
[9] = MT4LTR cells, read-out: TOX-MT4LTR (CC50)

| SMILES | EC50 [1, 7] [nM] | EC50 [2] [nM] | EC50 [3] [nM] | EC50 [4] [nM] | CC50 [5, 8] [nM] | EC50 [6] [nM] | CC50 [5, 9] [nM] | CC50 ([5]; read-out: TOX-MT4CMV (CC50)) [nM] | EC50 ([1]; read-out: HIV-IIIB EC50) [nM] |
| --- | --- | --- | --- | --- | --- | --- | --- | --- | --- |
| COC(=O)N[C@H](C(=O)N[C@@H](Cc1ccc(-c2ccc(N(C)C)nc2)cc1)[C@@H](O)C[C@@H](Cc1ccccc1F)C(=O)N[C@H]1c2cc(F)ccc2OC[C@H]1O)C(C)(C)C [Compound 33] | 2.5 | 1.5 | 1 | 0.9 | > 32000 | 9.8 | – | – | – |
| COC(=O)N[C@H](C(=O)N[C@@H](Cc1ccc(-c2ccc(N(C)C)nc2)cc1)[C@@H](O)C[C@@H](Cc1ccccc1F)C(=O)N[C@H]1c2cccc(F)c2OC[C@H]1O)C(C)(C)C [Compound 51] | 3 | 2.3 | 1.5 | 1.3 | – | 7 | > 32000 | – | – |
| COC(=O)N[C@H](C(=O)N[C@@H](Cc1ccc(-c2ccc(OC)nc2)cc1)[C@@H](O)C[C@@H](Cc1cccc(OC)c1)C(=O)N[C@H]1c2cc(Cl)ccc2OC[C@H]1O)C(C)(C)C [Compound 27] | 3.1 | 2.8 | 2.2 | 1.6 | > 32000 | 10.7 | > 32000 | – | – |
| COC(=O)N[C@H](C(=O)N[C@@H](Cc1ccc(-c2ccc(OC)nc2)cc1)[C@@H](O)C[C@@H](Cc1cccc(OC(F)(F)F)c1)C(=O)N[C@H]1c2cc(Cl)ccc2OC[C@H]1O)C(C)(C)C [Compound 42] | 4.2 | 7.2 | 4.1 | 3.9 | > 32000 | 23.7 | > 32000 | – | – |
| COC(=O)N[C@H](C(=O)N[C@@H](Cc1ccc(-c2cnc(OC)nc2)cc1)[C@@H](O)C[C@@H](Cc1cccc(F)c1)C(=O)N[C@H]1c2cc(F)ccc2OC[C@H]1O)C(C)(C)C [Compound 65] | 9.1 | 4.5 | 3.6 | 2.3 | – | 24.7 | > 32000 | – | – |
| COC(=O)NC(C(=O)NC(Cc1ccc(-c2ccc(OC)nc2)cc1)C(O)CC(Cc1cccc(Cl)c1)C(=O)NC1c2ccccc2OCC1O)C(C)(C)C (stereo not drawn) [Compound 3] | 2.6 | 2.3 | 3.5 | 2.4 | > 32000 | 13.6 | – | – | – |
| COC(=O)N[C@H](C(=O)N[C@@H](Cc1ccc(-c2ccc(OC)nc2)cc1)[C@@H](O)C[C@@H](Cc1ccccc1Cl)C(=O)N[C@H]1c2ccsc2CC[C@H]1O)C(C)(C)C [Compound 95] | 1.5 | 2.2 | 1.3 | 1 | – | 5.9 | 23000 | – | – |
| COC(=O)NC(C(=O)NC(Cc1ccc(-c2ccc(N(C)C)nc2)cc1)C(O)CC(Cc1ccccc1F)C(=O)NC1c2cc(Cl)ccc2OCC1O)C(C)(C)C (stereo not drawn) [Compound 8] | 1.8 | 2 | 1.2 | 1 | > 32000 | 12.4 | > 49000 | – | – |
| COC(=O)N[C@H](C(=O)N[C@@H](Cc1ccc(-c2ccc(OC)nc2)cc1)[C@@H](O)C[C@@H](Cc1cccc(OC(F)(F)F)c1)C(=O)N[C@H]1[C@H](C)CCC[C@H]1O)C(C)(C)C [Compound 94] | 0.9 | 1.9 | 0.8 | 1.4 | – | 7.1 | > 32000 | – | – |
| COCCOC(=O)N[C@H](C(=O)N[C@@H](Cc1ccc(-c2ccc(OC)nc2)cc1)[C@@H](O)C[C@@H](Cc1ccccc1F)C(=O)N[C@H]1c2cc(Cl)ccc2OC[C@H]1O)C(C)(C)C [Compound 55] | 2.7 | 2.1 | 1.5 | 1.2 | – | 12.5 | > 32000 | – | – |
| COC(=O)N[C@H](C(=O)N[C@@H](Cc1ccc(-c2cnc(OC(C)C)cn2)cc1)[C@@H](O)C[C@@H](Cc1cccc(F)c1)C(=O)N[C@H]1c2cc(Cl)ccc2OC[C@H]1O)C(C)(C)C [Compound 46] | 5.3 | 9.4 | 5.6 | 3.7 | – | 34.6 | 10000 | – | – |
| CN(C)c1ccc(-c2ccc(CC(NC(=O)C(NC(=O)CN3CCCC3)C(C)(C)C)C(O)CC(Cc3ccccc3F)C(=O)NC3c4cc(Cl)ccc4OCC3O)cc2)cn1 (stereo not drawn) [Compound 19] | 5.3 | 3.7 | 2.4 | 1.8 | > 27000 | 22.1 | – | – | – |
| COC(=O)N[C@H](C(=O)N[C@@H](Cc1ccc(-c2ccc(OC)nc2)cc1)[C@@H](O)C[C@@H](Cc1ccccc1F)C(=O)N[C@H]1c2cc(C)ccc2OC[C@H]1O)C(C)(C)C [Compound 66] | 0.9 | 0.8 | 0.8 | 0.5 | – | 7.7 | > 32000 | – | – |
| COC(=O)N[C@H](C(=O)N[C@@H](Cc1ccc(-c2ccc(N(C)C)nc2)cc1)[C@@H](O)C[C@@H](Cc1ccccc1F)C(=O)N[C@H]1c2ccc(Cl)cc2OC[C@H]1O)C(C)(C)C [Compound 86] | 2.6 | 7.5 | 1.4 | 1.3 | – | 17.1 | > 32000 | – | – |
| CN(C)c1ccc(-c2ccc(C[C@H](NC(=O)[C@@H](NC(=O)C3(C#N)CC3)C(C)(C)C)[C@@H](O)C[C@@H](Cc3ccccc3F)C(=O)N[C@H]3c4cc(F)ccc4OC[C@H]3O)cc2)cn1 [Compound 35] | 2.1 | 4 | 2.2 | 2 | – | 8.4 | > 32000 | > 32000 | – |
| COc1ccc(-c2ccc(C[C@H](NC(=O)O[C@H]3CO[C@H]4OCC[C@H]43)[C@@H](O)C[C@@H](Cc3ccccc3F)C(=O)N[C@H]3c4cccc(Cl)c4OC[C@H]3O)cc2)cn1 [Compound 75] | 2.4 | 1.4 | 0.9 | 0.8 | – | 9.3 | > 32000 | – | – |
| COC(=O)NC(C(=O)NC(Cc1ccc(-c2ccnc(C)c2)cc1)C(O)CC(Cc1cccc(Cl)c1)C(=O)NC1c2ccccc2OCC1O)C(C)(C)C (stereo not drawn) [Compound 1] | – | 5.7 | 4.8 | 3.7 | > 32000 | 39.3 | – | – | 7.7 |
| COC(=O)N[C@H](C(=O)N[C@@H](Cc1ccc(-c2ccc(OC)nc2)cc1)[C@@H](O)C[C@@H](Cc1ccccc1Cl)C(=O)N[C@H]1c2cc(F)ccc2OC[C@H]1O)C(C)(C)C [Compound 67] | 2.9 | 2.1 | 1.2 | 1 | > 32000 | 5.3 | > 32000 | – | – |
| COC(=O)N[C@H](C(=O)N[C@@H](Cc1ccc(-c2cccc(OC)n2)cc1)[C@@H](O)C[C@@H](Cc1ccccc1F)C(=O)N[C@H]1c2cc(Cl)ccc2OC[C@H]1O)C(C)(C)C [Compound 30] | 4 | 5.9 | 2.8 | 2.5 | > 32000 | 17.4 | – | – | – |
| COc1cccc(C[C@H](C[C@H](O)[C@H](Cc2ccc(-c3csc(N(C)C)n3)cc2)NC(=O)O[C@H]2CO[C@H]3OCC[C@H]32)C(=O)N[C@H]2c3cc(Cl)ccc3OC[C@H]2O)c1 [Compound 71] | 2.1 | 2.2 | 2.3 | 1 | > 32000 | 10.9 | > 32000 | – | – |

From patent US20120295920A1, “5-AMINO-4-HYDROXYPENTOYL AMIDES” (priority 2009, published 2012)
